Measurements published in US10093675B2, “6,8-disubstituted-9-(heterocyclyl)purines, compositions containing these derivatives and their use in cosmetic and medicinal applications” (USTAV EXPERIMENTALNI BOTANIKY AV CR, V.V.I., priority 2014, dated 2018).
Read-outs that look alike come from different tables or passages of the source.

Legend:
[1] = system: osteosarcoma cell line HOS; test: In vitro cytotoxic activity (Calcein AM), HOS; format: cell-based, human; conditions: 72 hours, read-out: Cell line tested/IC50 (μmol/L) HOS
Source text: (§1) Because toxic compounds negatively influence metabolic processes of cells, many standard cytotoxicity assays are based on measurement of metabolisation rate of various artificial substrates. Resulting product is then quantified, for example, by means of spectrometry. The assays can be easily modified for use in 96-well plates. For evaluation of cytotoxicity of the […] of this invention, a microtiter assay based on quantification of metabolisation of Calcein AM was used. The assay is widely used in drug screening programs and in chemosensitivity testing. In live cells, Calcein AM is enzymatically hydrolysed and accumulation of resulting calcein is manifested by green fluorescence.
(§2) The following human cell lines were used for routine screening of the compounds: normal diploid fibroblasts BJ, T-lymphoblastic leukemia cell line CEM, promyelocytic leukemia cell line HL-60, erytroid leukemia cell line K-562, breast carcinoma cell line MCF-7, osteosarcoma cell line HOS and melanoma cell line G-361. The cells were maintained in Nunc/Corning 80 cm^2 plastic tissue culture flasks and cultured in cell culture medium (DMEM with 5 g/l glucose, 2 mM glutamine, 100 U/ml penicillin, 100 mmg/ml streptomycin, 10% fetal calf serum and sodium bicarbonate). The cell suspensions were prepared and diluted according to the particular cell type and the expected target cell density (2.500-30.000 cells per well based on cell growth characteristics) and pipetted (80 μl) into 96-well plates. Inoculates were allowed a pre-incubation period of 24 hours at 37° C. and 5% CO2 for stabilization. Tested compound was added in total volume of 20 μl of water at time zero. Usually, test compound was evaluated at six 3-fold dilutions. In routine testing, the highest concentration tested was 100 μM, but it could have been adjusted because of limited solubility of a compound. All drug concentrations were tested in triplicates.
(§3) Incubations of cells with the test compounds lasted for 72 hours at 37° C., in 5% CO2 atmosphere and 100% humidity. At the end of incubation period Calcein AM in PBS was added into final concentration of 1 μg/ml. After another 1 hour of incubation fluorescence (FD) was measured with the Labsystem FIA Reader Fluoroscan Ascent (UK). Growth inhibition (GI) was estimated using the following equitation: GI=(mean FDdrug exposed wells−mean FDblank)/(mean FDcontrol wells−mean FDblank)×100%. The GI50 value, the drug concentration causing 50% reduction of Calcein AM conversion, was calculated from the obtained dose response curves.

[2] = system: breast carcinoma cell line MCF-7; test: In vitro cytotoxic activity (Calcein AM), MCF-7; format: cell-based, human; conditions: read-out: Cell line tested/IC50 (μmol/L) MCF7
Source text: as §1, §2, §3

[3] = system: normal diploid fibroblasts BJ; test: In vitro cytotoxic activity (Calcein AM), BJ; format: cell-based, human; conditions: 72 hours, read-out: Cell line tested/IC50 (μmol/L) BJ
Source text: as §1, §2, §3

melanoma cell line G-361 = test: In vitro cytotoxic activity (Calcein AM), G-361; format: cell-based, human; conditions: read-out: Cell line tested/IC50 (μmol/L) G-361
Source text: as §1, §2, §3

[4] = system: erytroid leukemia cell line K-562; test: In vitro cytotoxic activity (Calcein AM), K-562; format: cell-based, human; conditions: read-out: Cell line tested/IC50 (μmol/L) K-562
Source text: as §1, §2, §3

[5] = system: cytokinin-dependent tobacco callus Nicotiana tabacum L. cv. Wisconsin 38; test: Plant cell division: growth of cytokinin-dependent tobacco callus; format: cell-based; conditions: for Activity (%); (s.d.): relative activity at concentration with highest activity, 10^−6 M kinetin set at 100%; for Concentration with highest activity (mol/l): tobacco callus fresh weight increase after four weeks, tested 10^−8 M to 10^−4 M
Procedure: Cytokinin-dependent tobacco callus Nicotiana tabacum L. cv. Wisconsin 38 was maintained at 25° C. in darkness on modified MS medium, containing 4 μmol/l nicotinic acid, 2.4 μmol/l pyridoxine hydrochloride, 1.2 μmol/l thiamine, 26.6 μmol/l glycine, 1.37 μmol/l glutamine, 1.8 μmol/l myo-inositol, 30 g/l of sucrose, 8 g/l of agar, 5.37 μmol/l NAA and 0.5 μmol/l BAP. Subcultivation was carried out every three weeks. Fourteen days before the bioassay, the callus tissue was transferred to the media without BAP. Biological activity was determined from the increase in fresh callus weight after four weeks of cultivation. Five replicates were prepared for each cytokinin concentration and the entire test was repeated twice. From the obtained data, the concentration with highest activity was selected for each compound tested. Relative activity at this concentration was calculated (see Table 17 below). The activity obtained for 10^−6 M kinetin (Kin) was set as 100%.
The cytokinins to be tested were dissolved in dimethylsulfoxide (DMSO) and the solution brought up to 10^−3M with distilled water.

[6] = system: T-lymphoblastic leukemia cell line CEM; test: In vitro cytotoxic activity (Calcein AM), CEM; format: cell-based, human; conditions: 72 hours, read-out: Cell line tested/IC50 (μmol/L) CEM
Source text: as §1, §2, §3

[7] = system: Human diploid fibroblast BJ; test: In vitro cytotoxic activity (MTT); format: cell-based; conditions: 72 hours incubation; concentration causing 20% decrease in mitochondrial dehydrogenase activity
Procedure: MTT (metabolic tetrazolium toxicity) assay is a standard colorimetric assay for evaluation of cytotoxicity. Mitochondrial dehydrogenase activity converts yellow MTT into violet formazan which is measured by means of spectrometry.
Human diploid fibroblast BJ (passage 18-22) were seeded into 96-well plate (5.000 cells per well). After 6 hours cultivation medium (DMEM with 5 g/l glucose, 2 mM glutamine, 100 U/ml penicillin, 100 mmg/ml streptomycin, 10% fetal calf serum and sodium bicarbonate) was replaced with the cultivation medium containing test compounds in concentration range of 0-200 µM. Highest concentration was adjusted if the solubility of the compound was limiting. Every concentration was tested in pentaplicate. MTT was added to the cells after 72 hours incubation (final concentration 0.5 mg/ml) and incubation continued for another 3 hours. MTT was solubilised by DMSO and absorbance at 570 nm was measured. Growth inhibition (GI) was estimated using the following equitation: GI=(mean A drug exposed wells−mean Ablank/mean Acontrol wells−mean Ablank)×100%. The GI20 value, the drug concentration causing 20% decrease in mitochondrial dehydrogenase activity, was calculated from the obtained dose response curves.

[8] = system: Salmonella typhimurium histidien auxotrophs TA98 and TA100; test: Ames test; format: cell-based; conditions: 2.5 to 5000 μg/plate; presence and absence of Aroclor-induced rat liver S9
Procedure: A number of tests related to the safety of have been carried out using conventionally accepted protocols and procedures. The results of these studies are summarized herein. Tests were carried out using DMSO as solvent and dose levels of compound 21, 24, 26, 27, 39, 41, 45, 48, 50, 52, 53, 54, 55, 56, 63, 64, 66, 67, 68, 69, 70, 71, 72, 74, 76, 124, 125, 126, 127, 128, 129, 130, 145, 146, 147, 149, 150, 151, 208, 216, 218 a 243 at 2.5, 5.0, 15, 50, 500, 1500, and 5000 μg/plate based upon standard protocol and procedures (Ames et al., Mutation Research, 31, 347-364 (1975); Maron et al., Mutation Research, 113, 173-215 (1983)).

Row | SMILES | IC50 ([1]; Homo sapiens) [µmol/L] | IC50 ([2]; Homo sapiens, MCF7, 72 hours) [µmol/L] | IC50 ([3]; Homo sapiens, Fibroblast) [µmol/L] | IC50 (melanoma cell line G-361; Homo sapiens, G-361, 72 hours) [µmol/L] | IC50 ([4]; Homo sapiens, K562, 72 hours) [µmol/L] | Activity (%); (s.d.) [5] | IC50 ([6]; Homo sapiens) [µmol/L] | GI20 [7] [µM] | IC50 [1] [µmol/L] | IC50 ([2]; 72 hours) [µmol/L] | IC50 [3] [µmol/L] | IC50 (melanoma cell line G-361; 72 hours) [µmol/L] | IC50 ([4]; 72 hours) [µmol/L] | Concentration with highest activity (mol/l) [5] | IC50 [6] [µmol/L] | mutagenic response [8]
1 | CC(C)=CCNc1ncnc2c1nc(Cl)n2C1CCCCO1 (stereo not shown) [Compound 3, 8-Chloro-6-(3-methylbut-2-en-1-ylamino)-9-(tetrahydropyran-2-yl)-9H-purine] | > 50 | > 50 | > 50 | > 50 | > 50 | 118 (±6) % | > 50 | >50 |  |  |  |  |  |  |  | 
2 | CC(C)=CCNc1ncnc2c1nc(Br)n2C1CCCCO1 (stereo not shown) [Compound 23, 8-Bromo-6-(3-methylbut-2-en-1-ylamino)-9-(tetrahydropyran-2-yl)-9H-purine] | > 50 | > 50 | > 50 | > 50 | > 50 | 125 (±7) % | > 50 | >100 |  |  |  |  |  |  |  | 
3 | CC(C)=CCNc1ncnc2c1nc(Cl)n2C1CCCO1 (stereo not shown) [Compound 65] |  |  |  |  |  | 127 (±9) % |  | >100 | > 50 | > 50 | > 50 | > 50 | > 50 | 10^−6-10^−4 mol/l | > 50 | 
4 | COc1nc2c(NCc3ccccc3)ncnc2n1C1CCCCO1 (stereo not shown) [Compound 125] |  |  |  |  |  | 104 (±2) % |  | >100 | > 50 | > 50 | > 50 | > 50 | > 50 | 10^−6-10^−4 mol/l | > 50 | no positive mutagenic responses
5 | COc1nc2c(NC/C=C(\C)CO)ncnc2n1C1CCCCO1 (stereo not shown) [Compound 126, (E)-6-(4-Hydroxy-3-methylbut-2-en-1-ylamino)-8-methoxy-9-(tetrahydropyran-2-yl)-9H-purine] | > 50 | > 50 | > 50 | > 50 | > 50 | 116 (±6) % | > 50 | >100 |  |  |  |  |  |  |  | no positive mutagenic responses
6 | COc1nc2c(NCC=C(C)C)ncnc2n1C1CCCCO1 (stereo not shown) [Compound 127, 8-Methoxy-6-(3-methylbut-2-en-1-ylamino)-9-(tetrahydropyran-2-yl)-9H-purine] | > 50 | > 50 | > 50 | > 50 | > 50 | 114 (±6) % | > 50 | >100 |  |  |  |  |  |  |  | no positive mutagenic responses
7 | COc1cccc(CNc2ncnc3c2nc(OC)n3C2CCCCO2)c1 (stereo not shown) [Compound 128] |  |  |  |  |  | 121 (±5) % |  | >100 | > 50 | > 50 | > 50 | > 50 | > 50 | 10^−6-10^−5 mol/l | > 50 | no positive mutagenic responses
8 | COc1nc2c(NCc3cccc(O)c3)ncnc2n1C1CCCCO1 (stereo not shown) [Compound 129] |  |  |  |  |  | 111 (±4) % |  | >100 | > 50 | > 50 | > 50 | > 50 | > 50 | 10^−6-10^−5 mol/l | > 50 | no positive mutagenic responses
9 | COc1nc2c(NCc3cccc(F)c3)ncnc2n1C1CCCCO1 (stereo not shown) [Compound 130] |  |  |  |  |  | 108 (±3) % |  | >100 | > 50 | > 50 | > 50 | > 50 | > 50 | 10^−6-10^−4 mol/l | > 50 | no positive mutagenic responses
10 | CSc1nc2c(NC/C=C(\C)CO)ncnc2n1C1CCCCO1 (stereo not shown) [Compound 146] |  |  |  |  |  | 108 (±5) % |  | >100 | > 50 | > 50 | > 50 | > 50 | > 50 | 10^−6-10^−5 mol/l | > 50 | no positive mutagenic responses
11 | CSc1nc2c(NCC=C(C)C)ncnc2n1C1CCCCO1 (stereo not shown) [Compound 147] |  |  |  |  |  | 112 (±2) % |  | >100 | > 50 | > 50 | > 50 | > 50 | > 50 | 10^−6-10^−4 mol/l | > 50 | no positive mutagenic responses
12 | COc1nc2c(NCC=C(C)C)ncnc2n1C1CCCO1 (stereo not shown) [Compound 207] |  |  |  |  |  | 114 (±3) % |  | >100 | > 50 | > 50 | > 50 | > 50 | > 50 | 10^−6-10^−4 mol/l | > 50 | 
13 | COc1cccc(CNc2ncnc3c2nc(OC)n3C2CCCO2)c1 (stereo not shown) [Compound 209] |  |  |  |  |  | 112 (±4) % |  | >100 | > 50 | > 50 | > 50 | > 50 | > 50 | 10^−6-10^−4 mol/l | > 50 | 
